Data as given in patent US9120749B2, “Quinoline derivatives and MELK inhibitors containing the same” (ONCOTHERAPY SCIENCE, INC., priority 2010, dated 2015).
Structures can show the parent of a compound that is named as a salt. Where two headings read alike, the source gives them in different places.

How the values were obtained:
MELK = MELK (Homo sapiens, UniProt Q14680); experiment: Kinase assay: MELK activity, phosphorylation of FITC-labeled histone H3 peptide measured by IMAP fluorescence polarization; type: biochemical; conditions: read-out: IC50 (μM) (kinase assay)
Chain of MELK (Q14680 whole entry, looked up): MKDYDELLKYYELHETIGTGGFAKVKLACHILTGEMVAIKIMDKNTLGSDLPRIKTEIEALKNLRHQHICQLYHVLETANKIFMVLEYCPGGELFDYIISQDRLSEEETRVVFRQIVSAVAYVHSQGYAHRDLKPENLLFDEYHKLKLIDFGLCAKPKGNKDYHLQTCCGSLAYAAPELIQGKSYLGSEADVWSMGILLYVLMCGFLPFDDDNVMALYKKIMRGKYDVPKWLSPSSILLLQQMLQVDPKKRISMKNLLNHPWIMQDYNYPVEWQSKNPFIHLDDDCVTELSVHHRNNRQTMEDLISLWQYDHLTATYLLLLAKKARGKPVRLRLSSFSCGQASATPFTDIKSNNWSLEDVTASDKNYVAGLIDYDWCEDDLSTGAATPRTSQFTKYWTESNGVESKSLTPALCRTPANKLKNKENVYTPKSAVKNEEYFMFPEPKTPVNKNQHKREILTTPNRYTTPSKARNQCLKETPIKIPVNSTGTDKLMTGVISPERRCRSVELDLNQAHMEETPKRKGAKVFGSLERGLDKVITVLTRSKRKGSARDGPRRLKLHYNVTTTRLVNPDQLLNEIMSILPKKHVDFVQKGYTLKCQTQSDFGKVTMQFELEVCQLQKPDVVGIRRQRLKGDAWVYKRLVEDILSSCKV
Description: MELK activity was determined in the presence or absence of compounds using fluorescein isothiocyanate-labeled (FITC-labeled) histone H3 peptide as a substrate. […] Test compounds were dissolved in DMSO at 12.5 mM and then serially diluted as the DMSO concentration in the assays to be 1%. […] The reaction was stopped by the addition of three fold assay volume of progressive binding solution. Following 0.5 hour incubation at room temperature, fluorescence polarization was measured by Wallac EnVision 2103 multilabel reader (PerkinElmer).

T47D cells = experiment: Cell-based assay: anti-proliferative activity, Cell Counting Kit-8, 72 hours (T47D); conditions: Homo sapiens, T47D, 72 h
Description: (§1) To evaluate the expression status of MELK in several cell lines, western blot analysis was performed using crude cell lysate collected from those cells. Anti-MELK antibody (clone 31, BD Biosciences) was used to visualize the expression.
(§2) Active candidate inhibitors against MELK were evaluated for their target-specific cytotoxicity using T47D, A549, BT-549, and HT-1197 cells was used for negative control. 100 micro-L of cell suspension was seeded onto 96-well microtiter plate (ViewPlate-96FTC, PerkinElmer). The initial cell concentration of T47D, A549, BT-549, and HT-1197 were 3,000 cells/well, 2,000 cells/well and 2,500 cells/well, respectively. Cellular growth was determined using Cell Counting Kit-8 (DOJINDO) at 72 hours after the exposure of the candidate inhibitors. […] Accurate IC50 values were calculated as described previously.

HT-1197 cells = experiment: Cell-based assay: anti-proliferative activity, Cell Counting Kit-8, 72 hours (HT-1197, negative control without MELK expression); conditions: Homo sapiens, HT1197, 72 h, 72 hours
Description: as §1, §2

[1] = 50 micro-M ATP, FITC-labeled histone H3 peptide substrate, IMAP fluorescence polarization
[2] = HT1197 cells (negative control, no MELK expression)
[3] = HT1197 cells (negative control)
[4] = MELK kinase assay, IMAP fluorescence polarization, 50 micro-M ATP

SMILES	IC50 (T47D cells) [µM]	IC50 (HT-1197 cells; [2]) [µM]	IC50 (MELK) [µM]	IC50 (HT-1197 cells; [3]) [µM]	further results
COc1cc(-c2ccc3ncc(C(=O)C4CC4)c(NCC(=O)N4CCN(C)CC4)c3c2)cc(Cl)c1O [Example 395, 2-(6-(3-chloro-4-hydroxy-5-methoxyphenyl)-3-(cyclopropanecarbonyl)quinolin-4-ylamino)-1-(4-methylpiperazin-1-yl)ethanone]	10	10			IC50 (MELK; [1]): 1 µM
CN(C)CC1CCN(c2c(C(=O)C3CC3)cnc3ccc(-c4ccc(OC(F)F)cc4)cc23)CC1 [Example 458]	7.2	8.4			
CN(C)CC1CCN(c2c(C(=O)C3CC3)cnc3ccc(-c4ccc(C(F)F)cc4)cc23)CC1 [Example 465]	8.6	5.6			IC50 (MELK; [1]): 0.91 µM
CN(C)CC1CCN(c2c(C(=O)C3CC3)cnc3ccc(-c4ccc5c(c4)CC(=O)N5)cc23)CC1 [Example 474]	10	10			
COC(=O)c1ccc(-c2ccc3ncc(C(=O)C4CC4)c(N4CCC(CN(C)C)CC4)c3c2)cc1 [Example 481, methyl 4-(3-(cyclopropanecarbonyl)-4-(4-((dimethylamino)methyl)piperidin-1-yl)quinolin-6-yl)benzoate]	10	10	1.4		
CN(C)CC1CCN(c2c(C(=O)C3CC3)cnc3ccc(-c4ccc(C(=O)O)cc4)cc23)CC1 [Example 492, 4-(3-(cyclopropanecarbonyl)-4-(4-((dimethylamino)methyl)piperidin-1-yl)quinolin-6-yl)benzoic acid]	10	10	1.4		
COc1cc(-c2ccc3ncc(C(=O)C4CC4)c(-c4cn[nH]c4)c3c2)cc(Cl)c1O [Example 536, (6-(3-chloro-4-hydroxy-5-methoxyphenyl)-4-(1H-pyrazol-4-yl)quinolin-3-yl)(cyclopropyl)methanone]	1.3		0.11	14	
COc1cc(-c2cc(F)c3ncc(C(=O)C4CC4)c(Nc4ccc(CN(C)C)cc4)c3c2)cc(Cl)c1O [Example 551, (6-(3-chloro-4-hydroxy-5-methoxyphenyl)-4-(4-((dimethylamino)methyl)phenylamino)-8-fluoroquinolin-3-yl)(cyclopropyl)methanone]	2		1.1	6.9	
CN(C)Cc1ccc(Nc2c(C(=O)C3CC3)cnc3c(F)cc(-c4cc(Cl)c(O)c(Cl)c4)cc23)cc1 [Example 552, cyclopropyl(6-(3,5-dichloro-4-hydroxyphenyl)-4-(4-((dimethylamino)methyl)phenylamino)-8-fluoroquinolin-3-yl)methanone]	1.1		0.58	9	
N[C@H]1CC[C@H](Nc2c(C(=O)C3CC3)cnc3c(F)cc(-c4cc(F)c(O)c(Cl)c4)cc23)CC1 [Example 555]	0.44		5.1	10	
CN[C@H]1CC[C@H](Nc2c(C(C)=O)cnc3ccc(-c4cc(F)c(O)c(Cl)c4)cc23)CC1 [Example 560]	0.041		0.11	10	
CN(C)Cc1ccc(Nc2c(C(=O)C3CC3)cnc3c(F)cc(-c4cc(F)c(O)c(Cl)c4)cc23)cc1 [Example 563, (6-(3-chloro-5-fluoro-4-hydroxyphenyl)-4-(4-((dimethylamino)methyl)phenylamino)-8-fluoroquinolin-3-yl)(cyclopropyl)methanone]	1.3		1.8	3.3	
COc1cc(-c2cc(F)c3ncc(C(=O)C4CC4)c(N[C@H]4CC[C@H](N)CC4)c3c2)cc(Cl)c1O [Example 564]	0.43		0.26	1.8	
N[C@H]1CC[C@H](Nc2c(C(=O)C3CC3)cnc3c(F)cc(-c4cc(Cl)c(O)c(Cl)c4)cc23)CC1 [Example 565]	0.3		2.1	10	
O=C(c1cnc2ccc(-c3cc(Cl)c(O)c(Cl)c3)cc2c1Nc1ccc(CN2CCC(F)(F)C2)cc1)C1CC1 [Example 581, cyclopropyl(6-(3,5-dichloro-4-hydroxyphenyl)-4-(4-((3,3-difluoropyrrolidin-1-yl)methyl)phenylamino)quinolin-3-yl)methanone]	1.4		0.63	5.3	
CCCC(=O)c1cnc2ccc(-c3cc(Cl)c(O)c(Cl)c3)cc2c1Nc1ccc(N2CCNCC2)nc1 [Example 625, 1-(6-(3,5-dichloro-4-hydroxyphenyl)-4-(6-(piperazin-1-yl)pyridin-3-ylamino)quinolin-3-yl)butan-1-one]	1.5		0.15	10	
O=C(c1cnc2ccc(-c3cc(Cl)c(O)c(Cl)c3)cc2c1NC1CCC(N2CCC(F)(F)C2)CC1)C1CC1 (stereo not drawn) [Example 664, cyclopropyl(6-(3,5-dichloro-4-hydroxyphenyl)-4-(4-(3,3-difluoropyrrolidin-1-yl)cyclohexylamino)quinolin-3-yl)methanone]	1.7	10	0.14		
O=C(c1cnc2ccc(-c3cc(F)c(O)c(Cl)c3)cc2c1NC1CCC(N2CCC(F)(F)C2)CC1)C1CC1 (stereo not drawn) [Example 675, (6-(3-chloro-5-fluoro-4-hydroxyphenyl)-4-(4-(3,3-difluoropyrrolidin-1-yl)cyclohexylamino)quinolin-3-yl)(cyclopropyl)methanone]	0.8	4.4	0.83		
COc1cc(-c2ccc3ncc(C(=O)C4CC4)c(NC4CCC(N5CCC(F)(F)C5)CC4)c3c2)cc(Cl)c1O (stereo not drawn) [Example 676, (6-(3-chloro-4-hydroxy-5-methoxyphenyl)-4-(4-(3,3-difluoropyrrolidin-1-yl)cyclohexylamino)quinolin-3-yl)(cyclopropyl)methanone]	1	11	0.29		
CC(C)C(=O)c1cnc2ccc(-c3cc(F)c(O)c(Cl)c3)cc2c1N[C@H]1CC[C@H](N)CC1 [Example 937, 1-(4-((1R,4R)-4-aminocyclohexylamino)-6-(3-chloro-5-fluoro-4-hydroxyphenyl)quinolin-3-yl)-2-methylpropan-1-one, dihydrochloride]					IC50 (MELK; [4]): 0.0054 µM
CC(C)C(=O)c1cnc2ccc(-c3cc(F)c(O)c(F)c3)cc2c1N[C@H]1CC[C@H](N)CC1 [Example 938, 1-(4-((1R,4R)-4-aminocyclohexylamino)-6-(3,5-difluoro-4-hydroxyphenyl)quinolin-3-yl)-2-methylpropan-1-one, hydrochloride]					IC50 (MELK; [4]): 0.017 µM
CC(=O)c1cnc2ccc(-c3cc(Cl)c(O)c(Cl)c3)cc2c1N[C@H]1CC[C@H](N)CC1 [Example 939, 1-(4-((1R,4R)-4-aminocyclohexylamino)-6-(3,5-dichloro-4-hydroxyphenyl)quinolin-3-yl)ethanone, hydrochloride]					IC50 (MELK; [4]): 0.0034 µM
COc1cc(-c2ccc3ncc(C(C)=O)c(N[C@H]4CC[C@H](N)CC4)c3c2)cc(Cl)c1O [Example 940, 1-(4-((1R,4R)-4-aminocyclohexylamino)-6-(3-chloro-4-hydroxy-5-methoxyphenyl)quinolin-3-yl)ethanone, hydrochloride]					IC50 (MELK; [4]): 0.0012 µM
CN(C)[C@H]1CC[C@H](Nc2c(C(=O)C3CC3)cnc3ccc(-c4cc(Cl)c(O)c(Cl)c4)cc23)CC1 [Example 941, cyclopropyl(6-(3,5-dichloro-4-hydroxyphenyl)-4-((1R,4R)-4-(dimethylamino)cyclohexylamino)quinolin-3-yl)methanone, dihydrobromide]					IC50 (MELK; [4]): 0.0016 µM
CC(=O)c1cnc2ccc(-c3cc(Cl)c(O)c(Cl)c3)cc2c1Nc1ccc(CN(C)C)cc1 [Example 942, 1-(6-(3,5-dichloro-4-hydroxyphenyl)-4-(4-((dimethylamino)methyl)phenylamino)quinolin-3-yl)ethanone]					IC50 (MELK; [4]): 0.0022 µM
CC(=O)c1cnc2ccc(-c3cc(F)c(O)c(Cl)c3)cc2c1N[C@H]1CC[C@H](CN(C)C)CC1 [Example 943, 1-(6-(3-chloro-5-fluoro-4-hydroxyphenyl)-4-((trans-4-((dimethylamino)methyl)cyclohexyl)amino)quinolin-3-yl)ethanone dihydrochloride]					IC50 (MELK; MELK kinase assay, IMAP fluorescence polarization, 50 micro-M ATP, dihydrochloride): 0.004 µM
CC(=O)c1cnc2ccc(-c3cc(Cl)c(O)c(Cl)c3)cc2c1N[C@H]1CC[C@H](CN(C)C)CC1 [Example 944, 1-{6-(3,5-Dichloro-4-hydroxyphenyl)-4-[trans-4-((dimethylamino)methyl)cyclohexylamino]quinolin-3-yl}ethanone hydrochloride]					IC50 (MELK; MELK kinase assay, IMAP fluorescence polarization, 50 micro-M ATP, hydrochloride): 0.00094 µM
